Broadly, the inhibition is the relative decrease from the control value, in per cent.

Like-named read-outs stand apart in the source and are kept apart here.

These results are taken from article PMC6736568, “Discovery of Novel Anti-cryptosporidial Activities From Natural Products by in vitro High-Throughput Phenotypic Screening” (Frontiers in Microbiology, 2019).

One data set relates to Cryptosporidium parvum. Briefly: qRT-PCR assay of the growth of C. parvum in vitro in HCT-8 host cells (primary and secondary screening, EC50). In kind it is cell-based. Particulars: Cryptosporidium parvum, HCT-8; for inhibition at 10 µM: primary screening at 10 uM, read-out: Inhibition (%).
Another data set can be described thus: in vitro. Particulars: for cytotoxicity at 41 h, 10 µM: human.
Where [1] appears, read: primary screening at 10 uM, treated vs control.

Take `O=C(O)c1cccnc1` [NIACIN]: the inhibition at 10 µM in the data set on Cryptosporidium parvum is -6.7%. The cytotoxicity at 41 h, 10 µM in the data set “in vitro” turned out to be 5.3%. In addition, the “Hs18S ΔCT” value in the data set with HCT-8 host cells (Hs18S) (human, 41 h, 10 μM) was found to be 0.08.
In the same order, the values of `C=C1CCC2C(CC2(C)C)C(=O)CCC1O` (stereo not shown) [ISOKOBUSONE] are -33.5%, -18.7% and -0.25.
On to `COc1ccc(-c2cc(=O)c3ccccc3o2)cc1` [4'-METHOXYFLAVONE], for which the inhibition at 10 µM in the data set with Cryptosporidium parvum came out at 44.4%. Also, in “in vitro”, the cytotoxicity at 41 h, 10 µM was -6.3%. For the same molecule, the “Hs18S ΔCT” value in the data set on HCT-8 host cells (Hs18S) (setting [1]) is -0.09.
As for `O=c1[nH]cnc2nc[nH]c12` [HYPOXANTHINE], the inhibition at 10 µM in the data set on Cryptosporidium parvum stood at 23.2%. In addition, the cytotoxicity at 41 h, 10 µM in the data set “in vitro” was found to be 14.3%. For the same molecule, the “Hs18S ΔCT” value in the data set with HCT-8 host cells (Hs18S) (human, 41 h, 10 μM) turned out to be 0.22.
On to `CCCCCCCCCCCCCCCC(=O)NCCO` [PALMIDROL], for which the inhibition at 10 µM in the data set with Cryptosporidium parvum was -7.35%. For the same molecule, the cytotoxicity at 41 h, 10 µM in “in vitro” came out at 3.5%. For the same molecule, in the data set with HCT-8 host cells (Hs18S) (human, 41 h, 10 μM), the “Hs18S ΔCT” value is recorded as 0.05.
As to `CNc1ccccc1C(=O)O`, the inhibition at 10 µM with Cryptosporidium parvum was -14.8%. In addition, the cytotoxicity at 10 µM in the data set “in vitro” is 13%. Besides, the “Hs18S ΔCT” value with HCT-8 host cells (Hs18S) is listed as 0.20.
On to `COc1ccc(-c2cc(=O)c3c(O)cc(O[C@@H]4O[C@H](CO[C@@H]5O[C@@H](C)[C@H](O)[C@@H](O)[C@H]5O)[C@@H](O)[C@H](O)[C@H]4O)cc3o2)cc1O` [DIOSMIN], for which the inhibition at 10 µM with Cryptosporidium parvum was found to be 13.8%. Further, the cytotoxicity at 41 h, 10 µM in “in vitro” was -57.1%. The “Hs18S ΔCT” value with HCT-8 host cells (Hs18S) (human, 41 h, 10 μM) was -0.65.
Regarding `CC[C@H](C)C(=O)O[C@H]1CCC=C2C=C[C@H](C)[C@H](CC[C@@H]3C[C@@H](O)CC(=O)O3)[C@H]21` [MEVASTATIN], in the data set with Cryptosporidium parvum, the inhibition at 10 µM is 24%. Further, the cytotoxicity at 41 h, 10 µM in “in vitro” was found to be 14.4%. For the same molecule, in the data set on HCT-8 host cells (Hs18S) (human, 41 h, 10 μM), the “Hs18S ΔCT” value was 0.22.
For `NC(C(=O)O)C(O)C(=O)O` (stereo not drawn) [d,l-threo-3-HYDROXYASPARTIC ACID], the inhibition at 10 µM with Cryptosporidium parvum was determined as 17.8%. Moreover, the cytotoxicity at 41 h, 10 µM in the data set “in vitro” was determined as 10.7%. In the data set on HCT-8 host cells (Hs18S) (human, 41 h, 10 μM), the “Hs18S ΔCT” value came out at 0.16.
For the molecule `COc1cc2c(c(OC)c1OC)-c1ccc(OC)c(=O)cc1[C@@H](NC(C)=O)CC2` [COLCHICINE], the inhibition at 10 µM in the data set on Cryptosporidium parvum turned out to be 24.9%. The cytotoxicity at 10 µM in the data set “in vitro” was -26.5%. In the data set on HCT-8 host cells (Hs18S) (setting [1]), the “Hs18S ΔCT” value is -0.34.
Turning to `Oc1cc2c(cc1O)C1c3ccc(O)c(O)c3OCC1(O)C2` (stereo not shown) [HAEMATOXYLIN], the inhibition at 10 µM with Cryptosporidium parvum is -27.2%. In addition, in “in vitro”, the cytotoxicity at 41 h, 10 µM was 0.1%. Besides, the “Hs18S ΔCT” value in the data set with HCT-8 host cells (Hs18S) (human, 41 h, 10 μM) is 0.00.
On to `COc1ccc(CC(=O)c2ccc(O)cc2O)cc1` [ONONETIN], for which the inhibition at 10 µM in the data set on Cryptosporidium parvum was 8.27%. Besides, the cytotoxicity at 41 h, 10 µM in the data set “in vitro” was -12.9%. Moreover, in the data set on HCT-8 host cells (Hs18S) (human, 41 h, 10 μM), the “Hs18S ΔCT” value is recorded as -0.18.
Regarding `COc1cc2c(cc1OC)-c1c(oc3c4c(ccc3c1=O)OC(C(C)C)C4)CO2` (stereo not shown) [DEHYDRODIHYDROROTENONE], in the data set on Cryptosporidium parvum, the inhibition at 10 µM was -21.6%. Moreover, the cytotoxicity at 10 µM in the data set “in vitro” was 4.4%. Further, in the data set with HCT-8 host cells (Hs18S) (setting [1]), the “Hs18S ΔCT” value is listed as 0.06.
For the molecule `Cc1c[nH]cn1` [4-METHYLIMIDAZOLE], the inhibition at 10 µM with Cryptosporidium parvum is -27.8%. For the same molecule, the cytotoxicity at 10 µM in “in vitro” came to 11.5%. Also, the “Hs18S ΔCT” value in the data set on HCT-8 host cells (Hs18S) (setting [1]) worked out at 0.18.
On to `CC1=C(/C=C/C(C)=C/C=C/C(C)=C/C=C/C=C(C)/C=C/C=C(C)/C=C/C2=C(C)CCCC2(C)C)C(C)(C)CCC1` [beta-CAROTENE], for which, in the data set with Cryptosporidium parvum, the inhibition at 10 µM was -34.8%. Besides, the cytotoxicity at 41 h, 10 µM in the data set “in vitro” stood at 2.8%. For the same molecule, in the data set with HCT-8 host cells (Hs18S) (human, 41 h, 10 μM), the “Hs18S ΔCT” value was determined as 0.04.
For `COC(=O)C[C@H]1C(C)(C)C2(O)OC34CC2C(=O)[C@]1(C)C3CC[C@]1(C)C4=CC(=O)O[C@H]1c1ccoc1` (stereo partly drawn) [8beta-HYDROXYCARAPIN, 3,8-HEMIACETAL], the inhibition at 10 µM with Cryptosporidium parvum is 89.7%. Besides, the inhibition at 3.3 µM in the data set with Cryptosporidium parvum (secondary screening at 3.3 uM, read-out: % Inhibition (3.3 uM)) was 64%. The cytotoxicity at 41 h, 10 µM in the data set “in vitro” came out at 11.8%. The “Hs18S ΔCT” value in the data set on HCT-8 host cells (Hs18S) (human, 41 h, 10 μM) amounted to 0.18.
On to `Cc1cc(O)cc(=O)o1`, for which, in the data set on Cryptosporidium parvum, the inhibition at 10 µM worked out at 15.4%. Moreover, in the data set “in vitro”, the cytotoxicity at 10 µM was 3.1%. In addition, in the data set with HCT-8 host cells (Hs18S) (setting [1]), the “Hs18S ΔCT” value is listed as 0.04.
Take `CC(=O)[C@H]1CC[C@H]2[C@@H]3CC[C@H]4C[C@H](O)CC[C@]4(C)[C@H]3CC[C@]12C` [ALLOPREGNANOLONE]: the inhibition at 10 µM in the data set on Cryptosporidium parvum was -52.5%. The cytotoxicity at 10 µM in the data set “in vitro” is 1.3%. Besides, the “Hs18S ΔCT” value in the data set on HCT-8 host cells (Hs18S) (setting [1]) was found to be 0.02.
Turning to `C[C@]12CC[C@@H]3c4ccc(O)cc4CC[C@H]3[C@@H]1C[C@@H](O)[C@@H]2O` [ESTRIOL], the inhibition at 10 µM in the data set on Cryptosporidium parvum was 14.4%. The cytotoxicity at 41 h, 10 µM in the data set “in vitro” was -8.4%. Further, in the data set on HCT-8 host cells (Hs18S) (human, 41 h, 10 μM), the “Hs18S ΔCT” value is on record as -0.12.
Taken in the same sequence, the figures for `CC(=O)O[C@H]1CC[C@]2(C)[C@H]3CC=C4[C@@H]5CC(C)(C)CC[C@]5(C)CC[C@@]4(C)[C@]3(C)CC[C@H]2C1(C)C` [beta-AMYRIN ACETATE] were 11.3%, 0.5% and 0.01.
`COc1ccc2c(c1)O[C@@H]1COc3cc(OC)c(OC)cc3[C@@H]1C2=O` [MUNDOSERONE]: the inhibition at 10 µM in the data set on Cryptosporidium parvum came to 13.7%. Moreover, in the data set “in vitro”, the cytotoxicity at 10 µM stood at 11.4%. For the same molecule, in the data set with HCT-8 host cells (Hs18S) (setting [1]), the “Hs18S ΔCT” value came to 0.17.
